Data set [1] is filed under the species Homo sapiens. The data set can be described thus: Liver toxicity in human assessed as induction of drug-induced liver injury by measuring severity class index.
The species entered for data set [2] is Homo sapiens. Nature of the data set: Liver toxicity in human assessed as induction of drug-induced liver injury by measuring verified drug-induced liver injury concern status.

Non-standard residues stand in square brackets, D forms with d. Residues, ends and D or L forms follow the SMILES beside them. *: point of attachment. dPhe(4-NHCONH2) = NC(=O)Nc1ccc(C[C@@H](N)C(=O)O)cc1; Dihydroorotyl(S) = O=C1C[C@@H](C(=O)*)NC(=O)N1; dPhe(4-Cl) = N[C@H](Cc1ccc(Cl)cc1)C(=O)O; Phe(4-NH2) = Nc1ccc(C[C@H](N)C(=O)O)cc1; d2Nal = N[C@H](Cc1ccc2ccccc2c1)C(=O)O; Lys(iPr) = CC(C)NCCCC[C@H](N)C(=O)O; d3Pal = N[C@H](Cc1cccnc1)C(=O)O
Throughout, for DILI severity class: key of the grades not given here.

For the molecule `N#C[C@@H]1C[C@@H]2C[C@@H]2N1C(=O)[C@@H](N)C12CC3CC(CC(O)(C3)C1)C2` [SAXAGLIPTIN ANHYDROUS], the DILI_severity_class in the data set listed under Homo sapiens [1] worked out at 0. In the data set filed under Homo sapiens [2], the DILI_Concern entry was “No-Dili-Concern”.
The corresponding values for `CC(C)=CCN1CC[C@]2(C)c3cc(O)ccc3C[C@H]1[C@H]2C` [(+)-PENTAZOCINE] are 0 and “No-Dili-Concern”.
Taken in the same sequence, the figures for `Nc1ccn([C@@H]2CS[C@H](CO)O2)c(=O)n1` [LAMIVUDINE] were 3 and “Less-Dili-Concern”.
Taken in the same sequence, the figures for `O=C1CN=C(c2ccccc2Cl)c2cc([N+](=O)[O-])ccc2N1` [CLONAZEPAM] were 3 and “Less-Dili-Concern”.
For the molecule `C[C@]12C/C(=C/O)C(=O)C[C@@H]1CC[C@@H]1[C@@H]2CC[C@@]2(C)[C@H]1CC[C@]2(C)O` [OXYMETHOLONE], the DILI_severity_class in the data set listed under Homo sapiens [1] came to 7. Further, in the data set filed under Homo sapiens [2], the DILI_Concern entry is listed as “Most-Dili-Concern”.
The corresponding values for `COC(=O)[C@H]1[C@H]2C[C@@H]3c4[nH]c5cc(OC)ccc5c4CCN3C[C@H]2C[C@@H](OC(=O)c2cc(OC)c(OC)c(OC)c2)[C@@H]1OC` [RESERPINE] are 0 and “No-Dili-Concern”.
Take `C[C@@H](O[C@H]1OCCN(Cc2nc(O)n(P(=O)(O)O)n2)[C@H]1c1ccc(F)cc1)c1cc(C(F)(F)F)cc(C(F)(F)F)c1` [FOSAPREPITANT]: the DILI_severity_class in the data set filed under Homo sapiens [1] worked out at 3. Further, in the data set listed under Homo sapiens [2], the DILI_Concern entry was “Ambiguous-Dili-Concern”.
The corresponding values for `CC1(C)S[C@@H]2[C@H](NC(=O)C(C(=O)O)c3ccccc3)C(=O)N2[C@H]1C(=O)O` (some centres undefined) [CARBENICILLIN] are 3 and “Less-Dili-Concern”.
The corresponding values for `CC(=O)CCCCn1c(=O)c2c(ncn2C)n(C)c1=O` [PENTOXIFYLLINE] are 5 and “Ambiguous-Dili-Concern”.
The corresponding values for `Clc1ccc2c(c1)C(N1CCNCC1)=Nc1ccccc1O2` [AMOXAPINE] are 3 and “Ambiguous-Dili-Concern”.
As for `C[C@H](N[C@@H](CCc1ccccc1)C(=O)O)C(=O)N1CCC[C@H]1C(=O)O` [ENALAPRILAT ANHYDROUS], the DILI_severity_class in the data set listed under Homo sapiens [1] is 7. Further, in the data set filed under Homo sapiens [2], the DILI_Concern result is listed as “Ambiguous-Dili-Concern”.
Taken in the same sequence, the figures for `Nc1nc2c(ncn2COCCO)c(=O)[nH]1` [ACYCLOVIR] were 5 and “Less-Dili-Concern”.
Consider `CCC[C@@H]1C[C@@H](C(=O)N[C@@H]([C@H]2O[C@H](SC)[C@H](O)[C@@H](O)[C@H]2O)[C@H](C)Cl)N(C)C1` [CLINDAMYCIN], for which the DILI_severity_class in the data set filed under Homo sapiens [1] is 3. Also, in the data set filed under Homo sapiens [2], the DILI_Concern result was “Less-Dili-Concern”.
Taken in the same sequence, the figures for SECRETIN were 0 and “No-Dili-Concern”.
The corresponding values for `C#CCN(C)[C@H](C)Cc1ccccc1` [SELEGILINE] are 0 and “No-Dili-Concern”.
As to `C[C@](N)(Cc1ccc(O)cc1)C(=O)O` [METYROSINE], the DILI_severity_class in the data set filed under Homo sapiens [1] is listed as 0. For the same molecule, the DILI_Concern entry in the data set listed under Homo sapiens [2] is given as “No-Dili-Concern”.
As to `C#CCN[C@@H]1CCc2ccccc21` [RASAGILINE], the DILI_severity_class in the data set listed under Homo sapiens [1] is 3. In the data set filed under Homo sapiens [2], the DILI_Concern entry is listed as “Ambiguous-Dili-Concern”.
Taken in the same sequence, the figures for `Cc1ccc(-c2nc3ccc(C)cn3c2CC(=O)N(C)C)cc1` [ZOLPIDEM] were 7 and “Ambiguous-Dili-Concern”.
Taken in the same sequence, the figures for `CC(N)C(=O)OC(C)(C)Cc1ccc(Cl)cc1` (centres undefined) [ALAPROCLATE] were 8 and “Most-Dili-Concern”.
The corresponding values for `CN1C(C(=O)Nc2ccccn2)=C(O)c2ccccc2S1(=O)=O` [PIROXICAM] are 3 and “Less-Dili-Concern”.
Take `O=C(O)CCNC(=O)c1ccc(/N=N/c2ccc(O)c(C(=O)O)c2)cc1` [BALSALAZIDE]: the DILI_severity_class in the data set filed under Homo sapiens [1] is recorded as 8. Further, the DILI_Concern result in the data set listed under Homo sapiens [2] is on record as “Ambiguous-Dili-Concern”.
Taken in the same sequence, the figures for `COc1c2occc2cc2ccc(=O)oc12` [METHOXSALEN] were 3 and “Less-Dili-Concern”.
Taken in the same sequence, the figures for `COc1nc(N)nc2c1ncn2[C@@H]1O[C@H](CO)[C@@H](O)[C@@H]1O` [NELARABINE] were 4 and “Less-Dili-Concern”.
As for `COc1cc2c(c(OC)c1OC)-c1ccc(OC)c(=O)cc1[C@@H](NC(C)=O)CC2` [COLCHICINE], the DILI_severity_class in the data set listed under Homo sapiens [1] was found to be 6. For the same molecule, in the data set filed under Homo sapiens [2], the DILI_Concern entry is recorded as “Ambiguous-Dili-Concern”.
The corresponding values for `Cc1ccnc2c1NC(=O)c1cccnc1N2C1CC1` [NEVIRAPINE] are 8 and “Most-Dili-Concern”.
Taken in the same sequence, the figures for `COc1ccc(C[C@@H]2c3cc(OC)c(OC)cc3CC[N@+]2(C)CCC(=O)OCCCCCOC(=O)CC[N@@+]2(C)CCc3cc(OC)c(OC)cc3[C@H]2Cc2ccc(OC)c(OC)c2)cc1OC.O=S(=O)([O-])c1ccccc1.O=S(=O)([O-])c1ccccc1` [CISATRACURIUM BESYLATE] were 0 and “No-Dili-Concern”.
As to `CN1CCC[C@@H]1Cc1c[nH]c2ccc(CCS(=O)(=O)c3ccccc3)cc12`, in the data set listed under Homo sapiens [1], the DILI_severity_class came to 3. Besides, the DILI_Concern result in the data set filed under Homo sapiens [2] is listed as “Ambiguous-Dili-Concern”.
In the case of `C[C@@H](O)[C@@H]1NC(=O)[C@H](CCCCN)NC(=O)[C@@H](Cc2c[nH]c3ccccc23)NC(=O)[C@H](Cc2ccccc2)NC(=O)[C@@H](NC(=O)[C@H](N)Cc2ccccc2)CSSC[C@@H](C(=O)N[C@H](CO)[C@@H](C)O)NC1=O` [OCTREOTIDE], in the data set listed under Homo sapiens [1], the DILI_severity_class is reported as 2. Also, the DILI_Concern entry in the data set filed under Homo sapiens [2] is “Less-Dili-Concern”.
The corresponding values for `COc1ccc2c(C(=O)c3ccc(Cl)cc3)c(C)n(CC(=O)O)c2c1` [CLOMETACIN] are 8 and “Most-Dili-Concern”.
Taken in the same sequence, the figures for `COCCCC/C(=N\OCCN)c1ccc(C(F)(F)F)cc1` [FLUVOXAMINE] were 3 and “Ambiguous-Dili-Concern”.
Taken in the same sequence, the figures for `CC[C@H]1OC(=O)[C@H](C)[C@@H](O[C@H]2C[C@@](C)(OC)[C@@H](O)[C@H](C)O2)[C@H](C)[C@@H](O[C@@H]2O[C@H](C)C[C@H](N(C)C)[C@H]2O)[C@](C)(O)C[C@@H](C)CN(C)[C@H](C)[C@@H](O)[C@]1(C)O` [AZITHROMYCIN] were 7 and “Less-Dili-Concern”.
Take `Cc1nc2c([nH]1)-c1ccccc1N(C(=O)c1ccc(NC(=O)c3ccccc3-c3ccccc3)cc1)CC2` [CONIVAPTAN]: the DILI_severity_class in the data set filed under Homo sapiens [1] came out at 0. Moreover, the DILI_Concern entry in the data set listed under Homo sapiens [2] is on record as “No-Dili-Concern”.
In the case of `CC(C)(Oc1ccc(C(=O)c2ccc(Cl)cc2)cc1)C(=O)O` [FENOFIBRIC ACID], the DILI_severity_class in the data set listed under Homo sapiens [1] is 2. Also, the DILI_Concern result in the data set listed under Homo sapiens [2] is on record as “Ambiguous-Dili-Concern”.
The corresponding values for `CC[C@H](C)[C@H](NC(=O)[C@@H]1CCCN1C(=O)CNC(=O)[C@H](Cc1ccccc1)NC(=O)[C@H](CC(N)=O)NC(=O)[C@H](CC(N)=O)NC(=O)[C@H](CO)NC(=O)[C@H](CO)NC(=O)[C@H](Cc1c[nH]cn1)NC(=O)[C@@H](NC(=O)[C@H](CC(C)C)NC(=O)[C@H](Cc1ccccc1)NC(=O)[C@H](CC(N)=O)NC(=O)[C@H](C)NC(=O)[C@H](CC(C)C)NC(=O)[C@H](CCCNC(=N)N)NC(=O)[C@H](CCC(N)=O)NC(=O)[C@@H](NC(=O)[C@H](C)NC(=O)[C@@H]1CSSC[C@H](NC(=O)[C@@H](N)CCCCN)C(=O)N[C@@H](CC(N)=O)C(=O)N[C@@H]([C@@H](C)O)C(=O)N[C@@H](C)C(=O)N[C@@H]([C@@H](C)O)C(=O)N1)[C@@H](C)O)C(C)C)C(=O)N[C@@H](CC(C)C)C(=O)N1CCC[C@H]1C(=O)N1CCC[C@H]1C(=O)N[C@H](C(=O)N[C@@H](CC(N)=O)C(=O)N[C@H](C(=O)NCC(=O)N[C@@H](CO)C(=O)N[C@@H](CC(N)=O)C(=O)N[C@H](C(=O)N[C@@H](Cc1ccc(O)cc1)C(N)=O)[C@@H](C)O)C(C)C)[C@@H](C)O` [PRAMLINTIDE] are 0 and “No-Dili-Concern”.
Taken in the same sequence, the figures for `C=C1CC[C@H](O)C/C1=C/C=C1\CCC[C@]2(C)[C@@H]([C@H](C)/C=C/[C@H](C)C(C)C)CC[C@@H]12` [ERGOCALCIFEROL] were 0 and “No-Dili-Concern”.
Taken in the same sequence, the figures for `CN1C(CCl)Nc2cc(Cl)c(S(N)(=O)=O)cc2S1(=O)=O` (centres undefined) [METHYCLOTHIAZIDE] were 2 and “Ambiguous-Dili-Concern”.
Regarding `CC(=O)N[C@H](Cc1ccc2ccccc2c1)C(=O)N[C@H](Cc1ccc(Cl)cc1)C(=O)N[C@H](Cc1cccnc1)C(=O)N[C@@H](CO)C(=O)N[C@@H](Cc1ccc(NC(=O)[C@@H]2CC(=O)NC(=O)N2)cc1)C(=O)N[C@H](Cc1ccc(NC(N)=O)cc1)C(=O)N[C@@H](CC(C)C)C(=O)N[C@@H](CCCCNC(C)C)C(=O)N1CCC[C@H]1C(=O)N[C@H](C)C(N)=O` [DEGARELIX] (Ac-[d2Nal][dPhe(4-Cl)][d3Pal]S[Phe(4-NH2)](Dihydroorotyl(S))[dPhe(4-NHCONH2)]L[Lys(iPr)]P[dA]-NH2), in the data set listed under Homo sapiens [1], the DILI_severity_class is 3. In the data set filed under Homo sapiens [2], the DILI_Concern entry is on record as “Ambiguous-Dili-Concern”.
Taken in the same sequence, the figures for `CC1(C)NC(=O)N(c2ccc([N+](=O)[O-])c(C(F)(F)F)c2)C1=O` [NILUTAMIDE] were 8 and “Most-Dili-Concern”.
For `COC(=O)Nc1nc2ccc(C(=O)c3ccccc3)cc2[nH]1` [MEBENDAZOLE], the DILI_severity_class in the data set listed under Homo sapiens [1] is reported as 3. In addition, the DILI_Concern result in the data set listed under Homo sapiens [2] is given as “Less-Dili-Concern”.
Taken in the same sequence, the figures for `CC(C)n1c(/C=C/C(O)CC(O)CC(=O)O)c(-c2ccc(F)cc2)c2ccccc21` (centres undefined) [FLUVASTATIN] were 3 and “Less-Dili-Concern”.
`Nc1cc(-c2ccncc2)c[nH]c1=O` [INAMRINONE]: in the data set filed under Homo sapiens [1], the DILI_severity_class is on record as 5. Further, the DILI_Concern result in the data set filed under Homo sapiens [2] is “Ambiguous-Dili-Concern”.
The corresponding values for `CN(C)c1ccc(O)c2c1C[C@H]1C[C@H]3[C@H](N(C)C)C(O)=C(C(N)=O)C(=O)[C@@]3(O)C(O)=C1C2=O` [MINOCYCLINE] are 8 and “Most-Dili-Concern”.

Values taken from ChEMBL document CHEMBL4028802, “DILIrank: the largest reference drug list ranked by the risk for developing drug-induced liver injury in humans” (Drug Discov Today, 2016).
